In ChEMBL document CHEMBL3120127, “2,4-Diaminothienopyrimidines as orally active antimalarial agents” (J Med Chem, 2014):
Values after ≈ are worked out from the molar mass of the structure shown.

Key:
[1] = Solubility of the compound in 0.01 M HCl at pH 2; assay type: physicochemical
[2] = Solubility of the compound in phosphate buffer at pH 6.5 by HPLC-DAD-MS analysis; assay type: physicochemical
[3] = AUC (0 to infinity) in Sprague-Dawley rat at 4 mg/kg, iv; assay type: ADME, organism-based; parameters: dose 4 mg/kg, route intravenous, time infinity; settings: plasma
[4] = physchem; settings: octanol/water, pH 7.4
[5] = Solubility of the compound in phosphate buffer at pH 6.5 by nephlometric analysis; assay type: physicochemical
[6] = Oral bioavailability in Sprague-Dawley rat at 19 mg/kg; assay type: ADME, organism-based; settings: in vivo
[7] = tested on: Rattus norvegicus; assay: Cmax in Sprague-Dawley rat at 19 mg/kg, po; assay type: ADME, organism-based; parameters: dose 19 mg/kg, route oral; settings: in vivo
[8] = Volume of distribution at steady state in Sprague-Dawley rat blood at 4 mg/kg, iv; assay type: ADME, organism-based; parameters: dose 4 mg/kg, route intravenous; settings: read-out: Vdss
[9] = tested on: Rattus norvegicus; assay: Tmax in Sprague-Dawley rat at 19 mg/kg, po; assay type: ADME, organism-based; parameters: dose 19 mg/kg, route oral; settings: in vivo
[10] = tested on: Rattus norvegicus; assay: AUC (0 to infinity) in Sprague-Dawley rat at 19 mg/kg, po; assay type: ADME, organism-based, Plasma; parameters: time infinity, dose 19 mg/kg, route oral; settings: in vivo
[11] = Volume of distribution at steady state in Sprague-Dawley rat plasma at 4 mg/kg, iv; assay type: ADME, organism-based; parameters: dose 4 mg/kg, route intravenous; settings: read-out: Vdss
[12] = Plasma concentration in Swiss outbred mouse infected with Plasmodium berghei at 50 mg/kg, po measured at 1 hr; assay type: ADME, organism-based; parameters: dose 50 mg/kg, route oral
[13] = Plasma concentration in Swiss outbred mouse infected with Plasmodium berghei at 50 mg/kg, po measured at 24 hrs; assay type: ADME, organism-based; parameters: dose 50 mg/kg, route oral
[14] = Plasma concentration in Swiss outbred mouse infected with Plasmodium berghei at 50 mg/kg, po measured at 4 hrs; assay type: ADME, organism-based; parameters: dose 50 mg/kg, route oral

Row | Compound | solubility [1] [µg/mL] | solubility [2] [µg/mL] | chromatographic logD [4] | solubility kinetic [5] [µg/mL] | other results
1 | CNc1nc(NCCCN(C)C)c2sc(-c3cc(C(F)(F)F)cc(C(F)(F)F)c3)cc2n1 | 186 (≈ 390 µM) | 130 (≈ 272 µM) | – | – | –
2 | CNc1nc(NCCCN(C)C)c2sc(-c3ccccc3)cc2n1 | > 100 | – | 2.2 | > 100 | AUC(0-inf) [3]: 1.28 µM·h; bioavailability [6]: 34%; Cmax [7]: 8 nM; Vd [8]: 37 L/kg; Tmax [9]: 1.75 h; AUC [10]: 125 µM·min; Vd [11]: 139 L/kg
3 | CNc1nc(NCCCN(C)C)c2cc(-c3ccccc3)sc2n1 | 216 (≈ 633 µM) | 184 (≈ 539 µM) | – | – | –
4 | CNc1nc(NCCCN(C)C)c2oc(-c3ccccc3)cc2n1 | 214 (≈ 658 µM) | 203 (≈ 624 µM) | – | – | –
5 | CNc1nc(NCCCN(C)C)c2sc(-c3ccc(C(F)(F)F)cc3)cc2n1 | 240 (≈ 586 µM) | 177 (≈ 432 µM) | 4.1 | – | concentration at 1 h [12]: 410 nM; concentration at 24 h [13]: 210 nM; concentration at 4 h [14]: 220 nM
6 | CNc1nc(NCCCN(C)C)c2sc(-c3cccc(C(F)(F)F)c3)cc2n1 | 180 (≈ 440 µM) | 160 (≈ 391 µM) | – | – | –
7 | CNc1nc(NCCCN(C)C)c2sc(-c3ccc(C(F)(F)F)nc3)cc2n1 | > 100 | – | 3 | 12.5 (≈ 30.5 µM) | –
8 | CNc1nc(NCCCN(C)C)c2sc(-c3cccc(C#N)c3)cc2n1 | > 100 | – | 2.9 | 25 (≈ 68.2 µM) | –
9 | CNc1nc(NCCCN(C)C)c2sc(-c3ccc(C#N)cc3)cc2n1 | > 100 | – | – | 50 (≈ 136 µM) | –
10 | CNc1nc(NCCCN(C)C)c2sc(-c3cccc(OC(F)(F)F)c3)cc2n1 | > 100 | – | 4.3 | > 100 | –
11 | CNc1nc(NCCCN(C)C)c2sc(-c3ccc(OC(F)(F)F)cc3)cc2n1 | > 100 | – | 4.6 | > 100 | –
12 | CNc1nc(NCCCN(C)C)c2sc(-c3ccc(OC)nc3)cc2n1 | > 100 | – | 2.8 | 25 (≈ 67.1 µM) | –
13 | CNc1nc(NCCCN(C)C)c2sc(-c3ccc(F)cc3)cc2n1 | – | – | – | – | concentration at 1 h [12]: 140 nM; concentration at 24 h [13]: 40 nM; concentration at 4 h [14]: 90 nM
14 | CNc1nc(NCCCN(C)C)c2sc(-c3ccc(N)cc3)cc2n1 | > 100 | – | 2.3 | 12.5 (≈ 35.1 µM) | –
15 | CNc1nc(NCCCN(C)C)c2sc(-c3ccc(NS(C)(=O)=O)cc3)cc2n1 | > 100 | – | 2.1 | 25 (≈ 57.5 µM) | –
16 | CNc1nc(NCCCN(C)C)c2sc(-c3ccc(S(C)(=O)=O)cc3)cc2n1 | > 100 | – | 2.1 | 25 (≈ 59.6 µM) | –
17 | CNc1nc(NCCCN(C)C)c2sc(-c3ccc(N4CCOCC4)cc3)cc2n1 | 12.5 (≈ 29.3 µM) | – | 3 | 12.5 (≈ 29.3 µM) | –
18 | CNc1nc(NCCCN(C)C)c2sc(-c3ccc(N4CCNCC4)cc3)cc2n1 | > 100 | – | 3.5 | 12.5 (≈ 29.4 µM) | –
19 | CNc1nc(NCCCN(C)C)c2sc(-c3ccc(-n4cccn4)cc3)cc2n1 | 217 (≈ 532 µM) | 191 (≈ 469 µM) | – | – | –
20 | CNc1nc(NCCCN(C)C)c2sc(-c3ccc(C(F)(F)F)cc3Cl)cc2n1 | > 100 | – | 4.5 | > 100 | –
21 | CNc1nc(NCCCN(C)C)c2sc(-c3cncnc3)cc2n1 | 214 (≈ 623 µM) | 194 (≈ 565 µM) | – | – | –
22 | CNc1nc(NCCCN(C)C)c2sc(-c3ccc4nonc4c3)cc2n1 | > 100 | – | 3.3 | 25 (≈ 65.2 µM) | –
23 | CNc1nc(NCCCN(C)C)c2sc(-c3ccoc3)cc2n1 | 221 (≈ 667 µM) | 203 (≈ 612 µM) | – | – | –
24 | CNc1nc(NCCCN(C)C)c2sc(-c3ccc(C(C)=O)cc3)cc2n1 | > 100 | – | 2.9 | 12.5 (≈ 32.6 µM) | –
25 | CNc1nc(NCCCN(C)C)c2sc(-c3ccc(C(=O)N4CCOCC4)cc3)cc2n1 | > 100 | – | 2.2 | 25 (≈ 55 µM) | –
